# How the values were obtained:
# PI3K p85 mRNA = PI3K p85 mRNA expression in liver and fat of treated mice; type: in vivo, mouse
# Method: Ob/ob mice are used as a model of obesity. The ob/ob phenotype is due to a mutation in the leptin gene on a C57BL/6J-Lep(ob) background.
# In accordance with the present invention, the effects of ISIS 131410 (SEQ ID NO: 56) on PI3K p85 mRNA expression was investigated in the ob/ob mouse model of obesity.
# Mice were treated at a dose of 25 mg/kg of ISIS 141925 or 25 mg/kg of ISIS 131410.
# Treatment was continued for two weeks after which the mice were sacrificed and tissues collected for mRNA analysis. RNA values were normalized and are expressed as a percentage of saline treated control.
# Lean littermates (ob/wt) were also examined for mRNA reduction of PI3K p85 in the liver at doses of 25 and 50 mg/kg of ISIS 131410 or saline treatment. In these animals, at both doses, the level of expression was reduced only minimally to 80% of control.
# PI3K p85 splice variants = assay: Expression of PI3K p85 splice variants in liver, immunoprecipitation with p110 and Western blot with p85pan antibody; type: in vivo, mouse; conditions: livers of both ob/ob and wild-type mice
# Description: ISIS 131410 is one of several antisense oligonucleotides of the present invention that hybridize to the longer p85α splice variant and not to the p55α or the p50α splice variant. Studies were therefore designed to study the effects of this antisense oligonucleotide on expression product of PI3K p85α splice variant.
# [1] = Serum insulin levels in ob/ob mice; type: in vivo, mouse; conditions: male ob/ob mice; 50 mg/kg intraperitoneal once a week for two weeks
# Description: Treatment was continued for two weeks with serum insulin levels being measured on day 14.
# mouse PI3K p85 = assay: Inhibition of mouse PI3K p85 mRNA levels by antisense oligonucleotides, real-time quantitative RT-PCR; type: cell-based; design: concentration or dose not given beside the values; conditions: chimeric phosphorothioate 2′-MOE gapmers, averaged from two experiments
# Method: Cells were harvested 16 hours after oligonucleotide treatment.
# Target sites are indicated by nucleotide numbers, as given in the sequence source reference (Genbank accession no. U50413; SEQ ID NO: 48), to which the oligonucleotide binds.
# Cytidine residues are 5-methylcytidines throughout the oligonucleotides.
# Data were obtained by real-time quantitative RT-PCR as described in other examples herein and are averaged from two experiments. […] If present, “N.D.” indicates “no data”.
# [2] = male ob/ob mice, 25 mg/kg intraperitoneal once a week for two weeks, percentage of saline treated control
substance,measurement,setting,value
cctggccatcactgaatcca (CCTGGCCATCACTGAATCCA; chemistry not given here) [ISIS 131410],PI3K p85 mRNA level in liver,"PI3K p85 mRNA; lean littermates (ob/wt), at both doses, 25 and 50 mg/kg",80 % of control
same,PI3K p85 mRNA level in fat,PI3K p85 mRNA; [2],55 % of control
same,PI3K p85 mRNA level in liver,PI3K p85 mRNA; [2],52 % of control
same,Species of PI3K p85 splice variant present in liver,PI3K p85 splice variants,alters the species of PI3K p85 variant present in favor of the p50α variant
same,Hypoglycemia as a result of oligonucleotide treatment,"mouse, in vivo",no hypoglycemia induced
same,Blood glucose level at day 14,"ob/ob mice, 25 or 50 mg/kg intraperitoneal once a week, starting level 250 mg/dL at day 1",150 mg/dL
same,Blood glucose level at day 7,"ob/ob mice, all doses (25 or 50 mg/kg) intraperitoneal once a week, starting level 250 mg/dL at day 1",180 mg/dL
same,"Blood glucose level, constant throughout the study (average)","wild-type mice, all treatment groups (25 or 50 mg/kg), two weeks",150 mg/dL
same,Serum insulin level at day 14,[1],5 ng/mL
same,% Inhib. of mouse PI3K p85 mRNA levels,mouse PI3K p85,at least 60%
